Data from ChEMBL document CHEMBL4256942, “Exo Olefin-Containing Nuclear Transport Modulators and Uses Thereof” (2016).

Biological target: Exportin-1 (Homo sapiens, UniProt O14980)
Assay: Inhibition of CRM1 in human HeLa cells expressing GFP which is N-terminally fused to nuclear localization and C-terminally fused to nuclear export signal of PKI assesed as reduction in GFP subcellular localization incubated for 3 hrs by nuclear export assay
Type: cell-based

Chain of Exportin-1 (O14980 whole entry, the tested form may be a part): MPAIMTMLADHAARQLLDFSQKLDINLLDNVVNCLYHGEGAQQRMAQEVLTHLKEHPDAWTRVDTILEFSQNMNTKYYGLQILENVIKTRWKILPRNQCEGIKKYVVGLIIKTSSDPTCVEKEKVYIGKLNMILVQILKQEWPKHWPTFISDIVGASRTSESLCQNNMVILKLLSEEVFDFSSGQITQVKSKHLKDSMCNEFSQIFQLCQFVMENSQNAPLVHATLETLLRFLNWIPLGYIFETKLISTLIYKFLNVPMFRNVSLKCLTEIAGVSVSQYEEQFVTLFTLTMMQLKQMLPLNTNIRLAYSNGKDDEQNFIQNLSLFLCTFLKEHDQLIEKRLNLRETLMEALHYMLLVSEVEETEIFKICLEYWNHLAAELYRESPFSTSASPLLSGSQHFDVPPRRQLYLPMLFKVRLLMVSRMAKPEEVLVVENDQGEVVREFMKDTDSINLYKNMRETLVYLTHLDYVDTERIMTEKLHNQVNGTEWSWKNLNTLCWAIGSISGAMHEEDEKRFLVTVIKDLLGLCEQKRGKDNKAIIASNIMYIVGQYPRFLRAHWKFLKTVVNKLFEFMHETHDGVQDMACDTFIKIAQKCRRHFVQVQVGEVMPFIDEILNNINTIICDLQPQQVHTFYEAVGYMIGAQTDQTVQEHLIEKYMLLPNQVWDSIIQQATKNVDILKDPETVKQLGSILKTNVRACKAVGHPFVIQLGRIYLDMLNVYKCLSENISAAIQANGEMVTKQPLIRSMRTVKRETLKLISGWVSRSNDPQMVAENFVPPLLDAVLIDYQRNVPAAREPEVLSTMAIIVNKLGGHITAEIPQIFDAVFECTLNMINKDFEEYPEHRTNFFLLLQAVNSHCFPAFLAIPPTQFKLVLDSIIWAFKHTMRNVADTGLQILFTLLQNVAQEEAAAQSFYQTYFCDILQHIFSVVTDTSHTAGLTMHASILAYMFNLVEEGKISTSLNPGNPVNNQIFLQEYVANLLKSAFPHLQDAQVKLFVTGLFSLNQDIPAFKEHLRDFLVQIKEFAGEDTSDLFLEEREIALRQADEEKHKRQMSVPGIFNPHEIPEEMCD

Row | EC50 | Compound
1 | 30 µM | C=C(Cn1nnc(-c2cccc(C(F)(F)F)c2)n1)C(=O)OCC
2 | 30 µM | C=C(Cn1nnc(-c2cccc(Cl)c2)n1)C(=O)OCC
